The target in the assay is T1, αvβ6 (Homo sapiens, UniProt P06756+P18564).
T1 construct: endogenous in cells; host or cells: HT-29 cells
T1 sequence (P06756 31-889 limits assumed): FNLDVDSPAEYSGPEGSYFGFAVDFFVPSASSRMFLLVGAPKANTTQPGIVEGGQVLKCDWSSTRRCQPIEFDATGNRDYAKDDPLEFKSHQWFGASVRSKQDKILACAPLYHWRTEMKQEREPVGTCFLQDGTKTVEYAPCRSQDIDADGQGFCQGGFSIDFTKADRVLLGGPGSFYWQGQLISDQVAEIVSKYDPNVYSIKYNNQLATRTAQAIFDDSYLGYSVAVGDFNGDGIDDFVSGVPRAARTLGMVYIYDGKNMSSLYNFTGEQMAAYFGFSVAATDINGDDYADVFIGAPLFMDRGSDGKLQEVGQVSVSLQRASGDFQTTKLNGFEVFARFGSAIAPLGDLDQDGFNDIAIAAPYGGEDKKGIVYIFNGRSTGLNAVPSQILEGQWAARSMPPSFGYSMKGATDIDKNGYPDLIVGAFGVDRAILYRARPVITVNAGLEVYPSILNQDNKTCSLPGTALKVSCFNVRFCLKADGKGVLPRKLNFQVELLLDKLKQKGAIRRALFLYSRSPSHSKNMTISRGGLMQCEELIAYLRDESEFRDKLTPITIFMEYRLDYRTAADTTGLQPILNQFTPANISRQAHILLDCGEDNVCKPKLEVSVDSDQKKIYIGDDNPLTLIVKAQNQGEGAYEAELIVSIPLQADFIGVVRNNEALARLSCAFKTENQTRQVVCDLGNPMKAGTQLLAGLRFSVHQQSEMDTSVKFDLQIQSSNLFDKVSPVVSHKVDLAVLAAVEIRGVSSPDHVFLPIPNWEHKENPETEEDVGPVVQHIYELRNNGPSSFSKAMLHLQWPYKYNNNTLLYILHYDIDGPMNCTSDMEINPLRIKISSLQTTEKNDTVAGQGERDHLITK
T1 sequence (P06756 891-1048 limits assumed): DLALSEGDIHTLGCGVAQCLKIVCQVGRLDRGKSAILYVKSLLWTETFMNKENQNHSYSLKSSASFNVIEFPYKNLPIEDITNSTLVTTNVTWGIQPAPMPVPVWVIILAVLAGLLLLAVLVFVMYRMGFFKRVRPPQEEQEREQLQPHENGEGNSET
T1 sequence (P18564 22-788): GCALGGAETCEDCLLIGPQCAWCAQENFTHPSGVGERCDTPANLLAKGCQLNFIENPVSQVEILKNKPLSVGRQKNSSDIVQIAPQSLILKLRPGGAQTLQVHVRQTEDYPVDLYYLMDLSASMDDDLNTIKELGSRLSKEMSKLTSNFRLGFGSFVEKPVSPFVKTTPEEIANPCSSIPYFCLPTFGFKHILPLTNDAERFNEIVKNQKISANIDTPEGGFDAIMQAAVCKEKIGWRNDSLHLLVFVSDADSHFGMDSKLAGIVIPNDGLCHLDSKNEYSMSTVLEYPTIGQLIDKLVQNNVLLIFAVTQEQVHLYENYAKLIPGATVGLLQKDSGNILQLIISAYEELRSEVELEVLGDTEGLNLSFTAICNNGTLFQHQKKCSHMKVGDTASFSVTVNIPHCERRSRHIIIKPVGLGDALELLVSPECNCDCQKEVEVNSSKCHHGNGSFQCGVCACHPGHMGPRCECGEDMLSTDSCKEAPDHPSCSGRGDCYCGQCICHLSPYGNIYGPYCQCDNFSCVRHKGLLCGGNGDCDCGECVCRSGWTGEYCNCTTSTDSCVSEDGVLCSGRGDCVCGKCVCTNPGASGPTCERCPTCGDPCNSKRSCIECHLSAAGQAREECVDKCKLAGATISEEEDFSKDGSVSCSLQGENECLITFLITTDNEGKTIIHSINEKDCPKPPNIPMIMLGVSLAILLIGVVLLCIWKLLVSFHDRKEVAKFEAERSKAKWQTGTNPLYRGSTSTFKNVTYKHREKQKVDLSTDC
Briefly: αvβ6 cell adhesion inhibition test (HT-29 cells on recombinant human LAP protein). Type of assay: cell-based. To be noted: recombinant human LAP coating, 200 μM MnCl2, 1 hour, read-out: IC50 (rate of inhibition of cell adhesion, αvβ6). The protocol: Test Example 2 was performed by partially modifying the method of Henderson et al. (Nat Med., 19 (12), 1617-24, 2013). In Test Example 2, the same reagents as in Test Example 1 were used unless otherwise specified.
Recombinant human LAP protein (manufactured by R&D Systems, Inc., 246-LP-025) was prepared at […] with PBS, dispensed at 100 μL/well to a 96-well plate, and left standing overnight. The plate was washed with HBSS, then subjected to blocking treatment with DMEM containing 1% BSA, and used as a coated plate in the adhesion test.
HT-29 cells cultured in McCoy's 5A medium (manufactured by Thermo Fisher Scientific, Inc., 16600) containing 10% FBS and 1% penicillin/streptomycin/amphotericin B were recovered and suspended in DMEM containing 0.1% BSA and 200 μM MnCl2 to prepare a cell suspension. A test compound was added thereto.
The cell suspension of 5×10^5 cells/mL containing the test compound was added at 100 μL/well to the coated plate and left standing for 1 hour in a 5% CO2 incubator (37° C.). One hour later, the supernatant was removed, and the plate was washed with HBSS containing 200 μM MnCl2. The cells that adhered to each well in the plate were stained with crystal violet, and the cells were lysed, followed by absorbance measurement. Inhibition without substrate coating was defined as 100% inhibition, and inhibition when DMSO was added instead of the test compound was defined as 0% inhibition. The rate of inhibition of cell adhesion by the test compound was calculated according to the following expression.
Rate of inhibition of cell adhesion (%)=[1−{(Absorbance in the case of adding the test compound)−(Absorbance without substrate coating)}/{(Absorbance in the case of adding DMS)−(Absorbance without substrate coating)}]×100
An IC50 value was calculated from the rate of inhibition of cell adhesion by the test compound. A: IC50<3 nM, B: 3 nM≤IC50<10 nM, C: 10 nM≤IC50<30 nM, D: 30 nM≤IC50<100 nM, or E: IC50≥100 nM.
For orientation: IC50 means the midpoint of a concentration-inhibition curve. As to `O=C(O)C[C@H](NC(=O)CNC(=O)c1cc(NC2=NCC(F)CN2)c2cn[nH]c2c1)c1cc(C(F)(F)F)ccc1F` (stereo partly drawn) [Example 11-(b), (3S)-3-(2-(4-((5-fluoro-1,4,5,6-tetrahydropyrimidin-2-yl)amino)-1H-indazole-6-carboxamido)acetamido)-3-(2-fluoro-5-(trifluoromethyl)phenyl)propanoic acid], the IC50 is below 3 nM.

For `O=C(O)C[C@H](NC(=O)CNC(=O)c1cc(NC2=NCC(F)CN2)c2cn[nH]c2c1)c1cccc(Br)c1` (stereo partly drawn) [Example 42-(b), (3S)-3-(3-bromophenyl)-3-(2-(4-((5-fluoro-1,4,5,6-tetrahydropyrimidin-2-yl)amino)-1H-indazole-6-carboxamido)acetamido)propanoic acid], the IC50 is below 3 nM. Consider `O=C(O)C[C@H](NC(=O)CNC(=O)c1cc(NC2=NCC(F)CN2)c2cn[nH]c2c1)c1cc(OC(F)F)cc(C(F)(F)F)c1` (stereo partly drawn) [Example 24-(b), (3S)-3-(3-(difluoromethoxy)-5-(trifluoromethyl)phenyl)-3-(2-(4-((5-fluoro-1,4,5,6-tetrahydropyrimidin-2-yl)amino)-1H-indazole-6-carboxamido)acetamido)propanoic acid], for which the IC50 is below 3 nM.

For the compound `O=C(O)C[C@H](NC(=O)CNC(=O)c1cc(NC2=NCCCN2)c2cn[nH]c2c1)c1cc(Cl)cc(C(F)(F)F)c1` [Example 51-(b), (S)-3-(3-chloro-5-(trifluoromethyl)phenyl)-3-(2-(4-((1,4,5,6-tetrahydropyrimidin-2-yl)amino)-1H-indazole-6-carboxamido)acetamido)propanoic acid], the IC50 fell in the range of 10 to 30 nM. Then `O=C(O)C[C@H](NC(=O)CNC(=O)c1cc(NC2=NCC(F)CN2)c2cn[nH]c2c1)c1cc(Br)cc(I)c1` (stereo partly drawn) [Example 20-(b), (3S)-3-(3-bromo-5-iodophenyl)-3-(2-(4-((5-fluoro-1,4,5,6-tetrahydropyrimidin-2-yl)amino)-1H-indazole-6-carboxamido)acetamido)propanoic acid], with below 3 nM. In the case of `O=C(O)C[C@H](NC(=O)CNC(=O)c1cc(NC2=NCC(F)CN2)c2cn[nH]c2c1)c1ccc(OC(F)F)cc1` (stereo partly drawn) [Example 46-(b), (3S)-3-(4-(difluoromethoxy)phenyl)-3-(2-(4-((5-fluoro-1,4,5,6-tetrahydropyrimidin-2-yl)amino)-1H-indazole-6-carboxamido)acetamido)propanoic acid], the IC50 lay in the range of 3 to 10 nM. Turning to `O=C(O)C[C@H](NC(=O)CNC(=O)c1cc(NC2=NCC(F)CN2)c2cn[nH]c2c1)c1cccc(C(F)F)c1` (stereo partly drawn) [Example 38-(b), (3S)-3-(3-(difluoromethyl)phenyl)-3-(2-(4-((5-fluoro-1,4,5,6-tetrahydropyrimidin-2-yl)amino)-1H-indazole-6-carboxamido)acetamido)propanoic acid], the IC50 was below 3 nM. Regarding `O=C(O)C[C@H](NC(=O)CNC(=O)c1cc(NC2=NCC(O)CN2)c2cn[nH]c2c1)c1cc(Cl)cc(C(F)(F)F)c1` (stereo partly drawn) [Example 50-(b), (3S)-3-(3-chloro-5-(trifluoromethyl)phenyl)-3-(2-(4-((5-hydroxy-1,4,5,6-tetrahydropyrimidin-2-yl)amino)-1H-indazole-6-carboxamido)acetamido)propanoic acid], the IC50 is 10 to 30 nM. With `O=C(O)C[C@H](NC(=O)CNC(=O)c1cc(NC2=NCC(F)CN2)c2cn[nH]c2c1)c1cc(Br)cc(OC(F)(F)F)c1` (stereo partly drawn) [Example 32-(b), (3S)-3-(3-bromo-5-(trifluoromethoxy)phenyl)-3-(2-(4-((5-fluoro-1,4,5,6-tetrahydropyrimidin-2-yl)amino)-1H-indazole-6-carboxamido)acetamido)propanoic acid] the figure was below 3 nM. As for `O=C(O)C[C@H](NC(=O)CNC(=O)c1cc(NC2=NCC(F)CN2)c2cn[nH]c2c1)c1ccc(F)c(OC(F)(F)F)c1` (stereo partly drawn) [Example 34-(b), (3S)-3-(2-(4-((5-fluoro-1,4,5,6-tetrahydropyrimidin-2-yl)amino)-1H-indazole-6-carboxamido)acetamido)-3-(4-fluoro-3-(trifluoromethoxy)phenyl)propanoic acid], the IC50 was below 3 nM. Then `O=C(O)C[C@H](NC(=O)CNC(=O)c1cc(NC2=NCC(F)CN2)c2cn[nH]c2c1)c1ccc(F)c(OC(F)F)c1` (stereo partly drawn) [Example 27-(b), (3S)-3-(3-(difluoromethoxy)-4-fluorophenyl)-3-(2-(4-((5-fluoro-1,4,5,6-tetrahydropyrimidin-2-yl)amino)-1H-indazole-6-carboxamido)acetamido)propanoic acid], with 3 to 10 nM; and `O=C(O)C[C@H](NC(=O)CNC(=O)c1cc(NC2=NCC(F)CN2)c2cn[nH]c2c1)c1cccc(OC(F)F)c1` (stereo partly drawn) [Example 37-(b), (3S)-3-(3-(difluoromethoxy)phenyl)-3-(2-(4-((5-fluoro-1,4,5,6-tetrahydropyrimidin-2-yl)amino)-1H-indazole-6-carboxamido)acetamido)propanoic acid], with below 3 nM. Then `O=C(O)C[C@H](NC(=O)CNC(=O)c1cc(NC2=NCC(F)CN2)c2cn[nH]c2c1)c1cc(Br)cc(Br)c1` (stereo partly drawn) [Example 19-(b), (3S)-3-(3,5-dibromophenyl)-3-(2-(4-((5-fluoro-1,4,5,6-tetrahydropyrimidin-2-yl)amino)-1H-indazole-6-carboxamido)acetamido)propanoic acid], with below 3 nM; and `O=C(O)C[C@H](NC(=O)CNC(=O)c1cc(NC2=NCC(F)CN2)c2cn[nH]c2c1)c1cc(Br)cc(C(F)(F)F)c1` (stereo partly drawn) [Example 2-(b), (3S)-3-(3-bromo-5-(trifluoromethyl)phenyl)-3-(2-(4-((5-fluoro-1,4,5,6-tetrahydropyrimidin-2-yl)amino)-1H-indazole-6-carboxamido)acetamido)propanoic acid], with below 3 nM; and `O=C(O)C[C@H](NC(=O)CNC(=O)c1cc(NC2=NCC(F)CN2)c2cn[nH]c2c1)c1cccc(N2CCOCC2)c1` (stereo partly drawn) [Example 45-(b), (3S)-3-(2-(4-((5-fluoro-1,4,5,6-tetrahydropyrimidin-2-yl)amino)-1H-indazole-6-carboxamido)acetamido)-3-(3-morpholinophenyl)propanoic acid], with 3 to 10 nM. For `O=C(O)C[C@H](NC(=O)CNC(=O)c1cc(NC2=NCC(F)CN2)c2cn[nH]c2c1)c1cc(Cl)cc(I)c1` (stereo partly drawn) [Example 21-(b), (3S)-3-(3-chloro-5-iodophenyl)-3-(2-(4-((5-fluoro-1,4,5,6-tetrahydropyrimidin-2-yl)amino)-1H-indazole-6-carboxamido)acetamido)propanoic acid], the IC50 is below 3 nM.

Take `O=C(O)C[C@H](NC(=O)CNC(=O)c1cc(NC2=NCC(F)CN2)c2cn[nH]c2c1)c1cc(Cl)cc(C(F)(F)F)c1` (stereo partly drawn) [Example 1-(b), (3S)-3-(3-chloro-5-(trifluoromethyl)phenyl)-3-(2-(4-((5-fluoro-1,4,5,6-tetrahydropyrimidin-2-yl)amino)-1H-indazole-6-carboxamido)acetamido)propanoic acid]: the IC50 is below 3 nM. With `O=C(O)C[C@H](NC(=O)CNC(=O)c1cc(NC2=NCC(F)CN2)cc2[nH]ncc12)c1cc(Cl)cc(C(F)(F)F)c1` (stereo partly drawn) [Example 52-(b), (3S)-3-(3-chloro-5-(trifluoromethyl)phenyl)-3-(2-(6-((5-fluoro-1,4,5,6-tetrahydropyrimidin-2-yl)amino)-1H-indazole-4-carboxamido)acetamido)propanoic acid] the figure was below 3 nM; with `O=C(O)C[C@H](NC(=O)CNC(=O)c1cc(NC2=NCC(F)CN2)c2cn[nH]c2c1)c1ccc(F)c(C(F)(F)F)c1` (stereo partly drawn) [Example 13-(b), (3S)-3-(2-(4-((5-fluoro-1,4,5,6-tetrahydropyrimidin-2-yl)amino)-1H-indazole-6-carboxamido)acetamido)-3-(4-fluoro-3-(trifluoromethyl)phenyl)propanoic acid], below 3 nM; with `O=C(O)C[C@H](NC(=O)CNC(=O)c1cc(NC2=NCC(F)CN2)c2cn[nH]c2c1)c1cccc(OC2CC2)c1` (stereo partly drawn) [Example 40-(b), (3S)-3-(3-cyclopropoxyphenyl)-3-(2-(4-((5-fluoro-1,4,5,6-tetrahydropyrimidin-2-yl)amino)-1H-indazole-6-carboxamido)acetamido)propanoic acid], below 3 nM. In the case of `O=C(O)C[C@H](NC(=O)CNC(=O)c1cc(NC2=NCC(F)CN2)c2cn[nH]c2c1)c1cc(F)cc(C(F)(F)F)c1` (stereo partly drawn) [Example 6-(b), (3S)-3-(2-(4-((5-fluoro-1,4,5,6-tetrahydropyrimidin-2-yl)amino)-1H-indazole-6-carboxamido)acetamido)-3-(3-fluoro-5-(trifluoromethyl)phenyl)propanoic acid], the IC50 was 3 to 10 nM.

Source of the values: patent publication US20230192661A1, “1, 4, 5, 6-TETRAHYDROPYRIMIDINE-2-AMINE DERIVATIVE” (UBE Corporation, priority 2020, published 2023).
